Test results as given in patent publication US10633419B2, “Immunomodulators” (BRISTOL-MYERS SQUIBB COMPANY, priority 2014, dated 2020).
Starred links: 1 amine or outer side, 2 acyl side, 3 side chain; linkers in the order of their positions; H or OH if unused. Positions of bridges follow the written chain, without caps; N, C: chain ends. Non-standard residues stand in square brackets, D forms with d. Residues, ends and D or L forms follow the SMILES beside them. Groups on a side chain read outwards from the residue. *: point of attachment. εLys(α-Octadecanedioyl) = O=C(O)CCCCCCCCCCCCCCCCC(=O)N[C@@H](CCCCN*)C(=O)O; X4 = O=C(O)CCCCCCCCCCCCCCCCC(=O)N[C@@H](CC(=O)NCCCOCCOCCOCCCN*)C(=O)O; X18 = O=C(O)CCCCCCCCCCCCCCC(=O)N[C@@H](CC(=O)NCCCOCCOCCOCCCN*)C(=O)O; Trp(1-CH2COOH) = N[C@@H](Cc1cn(CC(=O)O)c2ccccc12)C(=O)O; X8 = O=C(O)CCCCCCCCCCCCNC(=O)CCC(=O)NCCCOCCOCCOCCCN*; X27 = CCCCCCCCCCCCCCCCNC(=O)CCC(=O)NCCCOCCOCCOCCCN*; C18 diacid = O=C(O)CCCCCCCCCCCCCCCCC(=O)*; Phe(4-F) = N[C@@H](Cc1ccc(F)cc1)C(=O)O; γGlu = O=C(O)[C@H](CCC(=O)[*:2])N[*:1]; X19 = O=C(C1C[C@H](O)CN1[*:1])[*:2]; Ethylenediamine = C(CN[*:2])N[*:1]; Hyp = O=C(O)[C@@H]1C[C@@H](O)CN1; NMeNle = CCCC[C@H](NC)C(=O)O; AEEEA = NCCOCCOCCOCC(=O)O; Pip = O=C(O)[C@@H]1CCCCN1; NMeA = CN[C@@H](C)C(=O)O; Aun = NCCCCCCCCCCC(=O)O; Dab = NCC[C@H](N)C(=O)O; Dap = NC[C@H](N)C(=O)O

Biological target: T1, PD-L1 (Homo sapiens, UniProt Q9NZQ7)
T1 construct: hPDL1(19-239)-TVMV-His; made in house; host or cells: HEK293T
Assay: PD-1/PD-L1 Homogenous Time-Resolved Fluorescence (HTRF) binding assay (PD-1-Ig/PD-L1-His)
Settings: inhibition of PD-1-Ig binding to PD-L1-TVMV-His; value given as range class; read-out: HTRF IC50
How it was run: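 Inhibitors pre-incubated 15 min with PD-L1-His (10 nM final), then PD-1-Ig (20 nM final) added for 15 min in dPBS/0.1% BSA/0.05% Tween-20. Eu-cryptate anti-Ig (1 nM) and APC anti-His (20 nM) added, 30 min equilibration, 665/620 nm HTRF ratio read.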

T1 sequence (Q9NZQ7 with tags, fused parts or gaps): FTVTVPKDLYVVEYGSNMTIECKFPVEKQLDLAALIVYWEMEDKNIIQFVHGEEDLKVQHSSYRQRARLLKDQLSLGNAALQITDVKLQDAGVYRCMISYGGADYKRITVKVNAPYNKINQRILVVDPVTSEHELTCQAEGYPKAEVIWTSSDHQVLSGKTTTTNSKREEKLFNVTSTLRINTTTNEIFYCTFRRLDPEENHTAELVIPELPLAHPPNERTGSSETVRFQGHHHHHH

IC50 [nM]	Structure (SMILES)
10 to 99	CCCC[C@H]1C(=O)N(C)[C@@H](CCCC)C(=O)N[C@@H](CC(C)C)C(=O)N[C@H](C(=O)NCCCOCCOCCOCCCNC(=O)C[C@H](NC(=O)CCCCCCCCCCCCCCCCC(=O)O)C(=O)O)CSCC(=O)N[C@@H](Cc2ccc(O)cc2)C(=O)N(C)[C@@H](C)C(=O)N[C@@H](CC(N)=O)C(=O)N2CCC[C@H]2C(=O)N[C@@H](CN)C(=O)N[C@@H](CC(C)C)C(=O)N2C[C@H](O)C[C@H]2C(=O)N[C@@H](Cc2c[nH]c3ccccc23)C(=O)N[C@@H](CCN)C(=O)N[C@@H](Cc2cn(CC(=O)O)c3ccccc23)C(=O)N1C [Example 11258] ({CH2CO}-Y[NMeA]NP[Dap]L[Hyp]W[Dab][Trp(1-CH2COOH)][NMeNle][NMeNle]LC-X4; thioether N-14)
10 to 99	CCCC[C@H]1C(=O)N(C)[C@@H](CCCC)C(=O)N[C@@H](CC(C)C)C(=O)N[C@H](C(=O)NCCCOCCOCCOCCCNC(=O)CCC(=O)NCCCCCCCCCCCCC(=O)O)CSCC(=O)N[C@@H](Cc2ccc(O)cc2)C(=O)N(C)[C@@H](C)C(=O)N[C@@H](CC(=O)O)C(=O)N2CCC[C@H]2C(=O)N[C@@H](Cc2cnc[nH]2)C(=O)N[C@@H](CCCCN)C(=O)N2C[C@H](O)C[C@H]2C(=O)N[C@@H](Cc2c[nH]c3ccccc23)C(=O)N[C@@H](CCCCN)C(=O)N[C@@H](Cc2cn(CC(=O)O)c3ccccc23)C(=O)N1C [Example 11219] ({CH2CO}-Y[NMeA]DPHK[Hyp]WK[Trp(1-CH2COOH)][NMeNle][NMeNle]LC-X8; thioether N-14)
10 to 99	CCCC[C@H]1C(=O)N(C)[C@@H](CCCC)C(=O)N[C@@H](CC(C)C)C(=O)N[C@H](C(=O)NCC(=O)N[C@@H](CC(=O)NCCNC(=O)CC[C@H](NC(=O)CCCCCCCCCCCCCCCCC(=O)O)C(=O)O)C(=O)O)CSCC(=O)N[C@@H](Cc2ccc(F)cc2)C(=O)N2CCCC[C@H]2C(=O)N[C@@H](CC(=O)O)C(=O)N2CCC[C@H]2C(=O)N[C@@H](CN)C(=O)N[C@@H](CC(C)C)C(=O)N2C[C@H](O)C[C@H]2C(=O)N[C@@H](Cc2c[nH]c3ccccc23)C(=O)N[C@@H](CCN)C(=O)N[C@@H](Cc2cn(CC(=O)O)c3ccccc23)C(=O)N1C [Example 14124] ({CH2CO}-[Phe(4-F)][Pip]DP[Dap]L[Hyp]W[Dab][Trp(1-CH2COOH)][NMeNle][NMeNle]LCGD([Ethylenediamine-γGlu-C18 diacid])-OH; thioether N-14)
100 to 1600	CCCC[C@H]1C(=O)N(C)[C@@H](CCCC)C(=O)N[C@@H](CC(C)C)C(=O)N[C@H](C(=O)NCC(=O)N[C@@H](CCC(=O)NCCCOCCOCCOCCCNC(=O)C[C@H](NC(=O)CCCCCCCCCCCCCCC(=O)O)C(=O)O)C(=O)O)CSCC(=O)N[C@@H](Cc2ccc(O)cc2)C(=O)N(C)[C@@H](C)C(=O)N[C@@H](CC(N)=O)C(=O)N2CCC[C@@H]2C(=O)N[C@@H](CN)C(=O)N[C@@H](CC(C)C)C(=O)N2C[C@@H](O)CC2C(=O)N[C@@H](Cc2c[nH]c3ccccc23)C(=O)N[C@@H](CCN)C(=O)N[C@@H](Cc2cn(CC(=O)O)c3ccccc23)C(=O)N1C (stereo partly shown) [Example 11243] ({CH2CO}-Y[NMeA]N[dP][Dap]L[X19]W[Dab][Trp(1-CH2COOH)][NMeNle][NMeNle]LCGE(X18)-OH; thioether N-14)

Continued, molecule first:

Structure (SMILES)	IC50 [nM]
CCCC[C@H]1C(=O)N(C)[C@@H](CCCC)C(=O)N[C@@H](CC(C)C)C(=O)N[C@H](C(=O)NCC(=O)N[C@@H](CCC(=O)NCCCC[C@H](NC(=O)CCCCCCCCCCCCCCCCC(=O)O)C(=O)O)C(=O)O)CSCC(=O)N[C@@H](Cc2ccc(O)cc2)C(=O)N(C)[C@@H](C)C(=O)N[C@@H](CC(N)=O)C(=O)N2CCC[C@H]2C(=O)N[C@@H](CN)C(=O)N[C@@H](CC(C)C)C(=O)N2C[C@H](O)C[C@H]2C(=O)N[C@@H](Cc2c[nH]c3ccccc23)C(=O)N[C@@H](CCN)C(=O)N[C@@H](Cc2cn(CC(=O)O)c3ccccc23)C(=O)N1C [Example 11177] ({CH2CO}-Y[NMeA]NP[Dap]L[Hyp]W[Dab][Trp(1-CH2COOH)][NMeNle][NMeNle]LCGE(εLys(α-Octadecanedioyl))-OH; thioether N-14)	100 to 1600
CCCC[C@H]1C(=O)N(C)[C@@H](CCCC)C(=O)N[C@@H](CC(C)C)C(=O)N[C@H](C(=O)NCCOCCOCCOCC(=O)NCCCCCCCCCCC(=O)O)CSCC(=O)N[C@@H](Cc2ccc(O)cc2)C(=O)N(C)[C@@H](C)C(=O)N[C@@H](CC(N)=O)C(=O)N2CCC[C@H]2C(=O)N[C@@H](CO)C(=O)N[C@@H](CCC(N)=O)C(=O)N2C[C@H](O)C[C@H]2C(=O)N[C@@H](Cc2c[nH]c3ccccc23)C(=O)N[C@@H](CO)C(=O)N[C@@H](Cc2cn(CC(=O)O)c3ccccc23)C(=O)N1C [Example 11085] ({CH2CO}-Y[NMeA]NPSQ[Hyp]WS[Trp(1-CH2COOH)][NMeNle][NMeNle]LC[AEEEA][Aun]-OH; thioether N-14)	10 to 99
CCCCCCCCCCCCCCCCNC(=O)CCC(=O)NCCCOCCOCCOCCCNC(=O)CNC(=O)[C@@H]1CSCC(=O)N[C@@H](Cc2ccc(O)cc2)C(=O)N(C)[C@@H](C)C(=O)N[C@@H](CC(=O)O)C(=O)N2CCC[C@H]2C(=O)N[C@@H](Cc2cnc[nH]2)C(=O)N[C@@H](CC(C)C)C(=O)N2C[C@H](O)C[C@H]2C(=O)N[C@@H](Cc2c[nH]c3ccccc23)C(=O)N[C@@H](CO)C(=O)N[C@@H](Cc2c[nH]c3ccccc23)C(=O)N(C)[C@@H](CCCC)C(=O)N(C)[C@@H](CCCC)C(=O)N[C@@H](CCCNC(=N)N)C(=O)N1 [Example 11124] ({CH2CO}-Y[NMeA]DPHL[Hyp]WSW[NMeNle][NMeNle]RCG-X27; thioether N-14)	100 to 1600
